Key:
Assay in all cases: growth inhibition of cancer cells (FIG. 3)
Type in all cases: cell-based
HEP2 cancer cells = tested on: HEP2 cancer cells
[1] = tested on: A549 lung cancer stem cells
[2] = tested on: HCT116 colon carcinoma stem cells
PC3 cancer stem cells = tested on: PC3 cancer stem cells
FaDu cancer stem cells = tested on: FaDu cancer stem cells
[3] = tested on: MDA-MB-468 cancer stem cells
HELA cancer stem cells = tested on: HELA cancer stem cells

CCCCOc1ccc(Oc2ccc(C=O)cc2)cc1 [YS2, 4-(4-butoxyphenoxy)benzaldehyde]
growth inhibition percentage (HEP2 cancer cells; HEP2 cancer cells): about 70% | performance compared to doxorubicin (DOX) (HEP2 cancer cells; HEP cell line, versus commercially available doxorubicin): comparable to or outperformed DOX | performance compared to doxorubicin (DOX) ([1]; A549 cell line, versus commercially available doxorubicin): comparable to or outperformed DOX | growth inhibition percentage ([1]; A549 lung cancer stem cells): about 90% | performance compared to doxorubicin (DOX) ([2]; HCT 116 cell line, versus commercially available doxorubicin): comparable to or outperformed DOX | growth inhibition percentage ([2]; HCT116 colon carcinoma stem cells): about 90% | growth inhibition percentage (PC3 cancer stem cells): about 90% | growth inhibition percentage (FaDu cancer stem cells): about 90% | growth inhibition percentage [3]: about 95% | growth inhibition percentage (HELA cancer stem cells): about 80%

From US12350241B1, “Method for inhibiting proliferation of cancer cells” (IMAM MOHAMMAD IBN SAUD ISLAMIC UNIVERSITY, priority 2024, dated 2025)
